Data published in the Kinase Knowledgebase extract (Sharma et al. 2016).
pIC50: −log10 of the molar value.

Biological target: ROCK2 (human) (UniProt O75116)
Experiment: Inhibition of ROCK2 Kinase Activity

Chain of ROCK2 (human) (O75116 whole entry, looked up): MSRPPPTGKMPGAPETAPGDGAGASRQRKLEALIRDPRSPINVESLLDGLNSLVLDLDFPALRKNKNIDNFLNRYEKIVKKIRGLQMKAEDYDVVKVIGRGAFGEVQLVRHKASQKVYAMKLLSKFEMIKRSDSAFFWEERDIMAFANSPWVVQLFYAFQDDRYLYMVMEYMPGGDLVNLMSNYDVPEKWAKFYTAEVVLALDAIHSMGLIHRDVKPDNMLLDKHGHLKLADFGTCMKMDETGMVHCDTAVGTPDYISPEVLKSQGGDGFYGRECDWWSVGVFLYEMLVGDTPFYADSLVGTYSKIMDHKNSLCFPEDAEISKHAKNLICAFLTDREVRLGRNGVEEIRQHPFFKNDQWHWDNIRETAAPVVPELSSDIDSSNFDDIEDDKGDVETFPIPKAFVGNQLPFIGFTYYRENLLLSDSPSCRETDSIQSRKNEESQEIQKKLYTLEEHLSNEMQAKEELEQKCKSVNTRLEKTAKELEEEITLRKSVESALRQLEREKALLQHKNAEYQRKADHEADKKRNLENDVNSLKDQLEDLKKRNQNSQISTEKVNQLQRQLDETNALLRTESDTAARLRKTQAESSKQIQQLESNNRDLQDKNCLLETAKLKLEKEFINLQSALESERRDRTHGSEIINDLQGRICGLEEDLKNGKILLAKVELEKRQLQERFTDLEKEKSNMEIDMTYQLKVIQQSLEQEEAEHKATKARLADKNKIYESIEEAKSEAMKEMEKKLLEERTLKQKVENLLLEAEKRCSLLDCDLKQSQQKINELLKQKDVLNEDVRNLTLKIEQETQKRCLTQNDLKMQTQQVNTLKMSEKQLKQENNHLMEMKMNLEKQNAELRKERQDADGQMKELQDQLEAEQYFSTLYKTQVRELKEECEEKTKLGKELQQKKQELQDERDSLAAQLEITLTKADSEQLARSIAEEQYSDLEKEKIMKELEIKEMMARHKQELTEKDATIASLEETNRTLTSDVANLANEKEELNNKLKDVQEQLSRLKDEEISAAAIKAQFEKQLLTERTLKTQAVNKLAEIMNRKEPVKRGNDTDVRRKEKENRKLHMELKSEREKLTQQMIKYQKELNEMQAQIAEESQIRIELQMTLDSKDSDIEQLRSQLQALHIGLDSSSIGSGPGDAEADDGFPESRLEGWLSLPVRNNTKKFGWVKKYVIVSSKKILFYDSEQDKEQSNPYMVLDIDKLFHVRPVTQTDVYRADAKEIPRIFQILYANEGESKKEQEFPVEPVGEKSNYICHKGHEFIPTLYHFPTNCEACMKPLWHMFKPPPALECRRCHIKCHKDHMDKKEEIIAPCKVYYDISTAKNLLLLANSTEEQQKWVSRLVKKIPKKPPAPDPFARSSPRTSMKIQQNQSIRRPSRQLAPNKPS

pIC50	SMILES
5.30 to 6.30	NC(CNC(=O)CCc1cccnc1)c1ccc(C(=O)Nc2ccncc2)cc1 (stereo unspecified)
6.30 to 7.30	NC(CNC(=O)C1(c2ccc(F)cc2Cl)CC1)c1ccc(C(=O)Nc2ccncc2)cc1 (stereo unspecified)
5.30 to 6.30	Nc1c(C(=O)NCC(N)c2ccc(C(=O)Nc3ccncc3)cc2)cnn1-c1ccc(F)cc1 (stereo unspecified)
6.30 to 7.30	COc1ccc(Cl)cc1NC(=O)NCC(N)c1ccc(C(=O)Nc2ccncc2)cc1 (stereo unspecified)
4.30 to 5.30	COc1ccc(CC(=O)N(C)CC(N)c2ccc(C(=O)Nc3ccncc3)cc2)c(OC)c1OC (stereo unspecified)
5.30 to 6.30	COc1ccccc1C(=O)NCC(N)c1ccc(C(=O)Nc2ccncc2)cc1 (stereo unspecified)
6.30 to 7.30	COc1ccc(C2(C(=O)NCC(N)c3ccc(C(=O)Nc4ccncc4)cc3)CCCC2)cc1 (stereo unspecified)
5.30 to 6.30	COc1ccc(CCNC(=O)CC(N)c2ccc(C(=O)Nc3ccncc3)cc2)cc1OC (stereo unspecified)
5.30 to 6.30	Cc1ccccc1C(=O)NCC(N)c1ccc(C(=O)Nc2ccncc2)cc1 (stereo unspecified)
5.30 to 6.30	COc1ccc(C(=O)NCC(N)c2ccc(C(=O)Nc3ccncc3)cc2)cc1 (stereo unspecified)
6.30 to 7.30	CC(C)(C(=O)NCC(N)c1ccc(C(=O)Nc2ccncc2)cc1)c1ccc(F)cc1 (stereo unspecified)
6.30 to 7.30	NC(CNC(=O)Cc1cccs1)c1ccc(C(=O)Nc2ccncc2)cc1 (stereo unspecified)
6.30 to 7.30	NC(CNC(=O)Cc1csc(-c2ccccc2)n1)c1ccc(C(=O)Nc2ccncc2)cc1 (stereo unspecified)
6.30 to 7.30	Cc1ccc(C)c(CNC(=O)CC(N)c2ccc(C(=O)Nc3ccncc3)cc2)c1 (stereo unspecified)
6.30 to 7.30	NC(CNC(=O)c1ccc2ccccc2n1)c1ccc(C(=O)Nc2ccncc2)cc1 (stereo unspecified)
5.30 to 6.30	NC(CNC(=O)C1CCCO1)c1ccc(C(=O)Nc2ccncc2)cc1 (stereo unspecified)
5.30 to 6.30	N#Cc1cccc(C(=O)NCC(N)c2ccc(C(=O)Nc3ccncc3)cc2)c1 (stereo unspecified)
6.30 to 7.30	Cc1cccc(Cl)c1CNC(=O)CC(N)c1ccc(C(=O)Nc2ccncc2)cc1 (stereo unspecified)
6.30 to 7.30	CC[C@@H](NC(=O)CC(N)c1ccc(C(=O)Nc2ccncc2)cc1)c1ccc(C)cc1 (stereo partly specified)
6.30 to 7.30	CC(=NOCC(=O)NCC(N)c1ccc(C(=O)Nc2ccncc2)cc1)c1ccccc1 (stereo unspecified)
5.30 to 6.30	NC(CNC(=O)c1ccncc1)c1ccc(C(=O)Nc2ccncc2)cc1 (stereo unspecified)
6.30 to 7.30	COc1ccc(OC)c(CNC(=O)CC(N)c2ccc(C(=O)Nc3ccncc3)cc2)c1 (stereo unspecified)
6.30 to 7.30	COc1ccc(OC)c(CCNC(=O)CC(N)c2ccc(C(=O)Nc3ccncc3)cc2)c1 (stereo unspecified)
5.30 to 6.30	CCCCNC(=O)NCC(N)c1ccc(C(=O)Nc2ccncc2)cc1 (stereo unspecified)
6.30 to 7.30	NC(CC(=O)NCc1cccs1)c1ccc(C(=O)Nc2ccncc2)cc1 (stereo unspecified)
5.30 to 6.30	NC(CNC(=O)c1cc2cc(F)ccc2[nH]1)c1ccc(C(=O)Nc2ccncc2)cc1 (stereo unspecified)
6.30 to 7.30	COc1ccc(NC(=O)NCC(N)c2ccc(C(=O)Nc3ccncc3)cc2)cc1 (stereo unspecified)
5.30 to 6.30	NC(CNC(=O)C1(c2ccccc2)CC1)c1ccc(C(=O)Nc2ccncc2)cc1 (stereo unspecified)

pIC50	SMILES
6.30 to 7.30	COCCNC(=O)CC(N)c1ccc(C(=O)Nc2ccncc2)cc1 (stereo unspecified)
6.30 to 7.30	NC(CC(=O)NCC1CC1)c1ccc(C(=O)Nc2ccncc2)cc1 (stereo unspecified)
6.30 to 7.30	NC(CC(=O)NCc1ccco1)c1ccc(C(=O)Nc2ccncc2)cc1 (stereo unspecified)
6.30 to 7.30	COc1cccc(CCNC(=O)CC(N)c2ccc(C(=O)Nc3ccncc3)cc2)c1 (stereo unspecified)
5.30 to 6.30	NC(CNC(=O)c1cccnc1)c1ccc(C(=O)Nc2ccncc2)cc1 (stereo unspecified)
6.30 to 7.30	CCOc1ccc(CCNC(=O)CC(N)c2ccc(C(=O)Nc3ccncc3)cc2)cc1 (stereo unspecified)
6.30 to 7.30	NC(CNC(=O)C1CCOc2ccccc21)c1ccc(C(=O)Nc2ccncc2)cc1 (stereo unspecified)
6.30 to 7.30	COc1ccc(CC(=O)N(C)CC(N)c2ccc(C(=O)Nc3ccncc3)cc2)c(OC)c1 (stereo unspecified)
5.30 to 6.30	COc1ccccc1CC(=O)NCC(N)c1ccc(C(=O)Nc2ccncc2)cc1 (stereo unspecified)
6.30 to 7.30	COc1cccc(CNC(=O)CC(N)c2ccc(C(=O)Nc3ccncc3)cc2)c1OC (stereo unspecified)
6.30 to 7.30	CC(C)(NC(=O)CC(N)c1ccc(C(=O)Nc2ccncc2)cc1)c1ccccc1 (stereo unspecified)
5.30 to 6.30	NC(CNC(=O)c1csc(Nc2ccc(F)cc2)n1)c1ccc(C(=O)Nc2ccncc2)cc1 (stereo unspecified)
6.30 to 7.30	NC(CC(=O)NCc1ccc2c(c1)OCO2)c1ccc(C(=O)Nc2ccncc2)cc1 (stereo unspecified)
6.30 to 7.30	NC(CC(=O)NCCc1ccccc1F)c1ccc(C(=O)Nc2ccncc2)cc1 (stereo unspecified)
5.30 to 6.30	COc1cc(OC)cc(C(=O)NCC(N)c2ccc(C(=O)Nc3ccncc3)cc2)c1 (stereo unspecified)
6.30 to 7.30	NC(CC(=O)NCc1ccccc1F)c1ccc(C(=O)Nc2ccncc2)cc1 (stereo unspecified)
6.30 to 7.30	COc1ccc2c(c1)CCCC2C(=O)NCC(N)c1ccc(C(=O)Nc2ccncc2)cc1 (stereo unspecified)
5.30 to 6.30	COc1cccc(C(=O)NCC(N)c2ccc(C(=O)Nc3ccncc3)cc2)c1 (stereo unspecified)
6.30 to 7.30	CC(C)(C(=O)NCC(N)c1ccc(C(=O)Nc2ccncc2)cc1)c1ccc(F)cc1F (stereo unspecified)
6.30 to 7.30	CC(C)(C(=O)NCC(N)c1ccc(C(=O)Nc2ccncc2)cc1)c1cccs1 (stereo unspecified)
5.30 to 6.30	NC(CNC(=O)c1c[nH]cn1)c1ccc(C(=O)Nc2ccncc2)cc1 (stereo unspecified)
6.30 to 7.30	NC(CNC(=O)c1ccsc1)c1ccc(C(=O)Nc2ccncc2)cc1 (stereo unspecified)
6.30 to 7.30	NC(CC(=O)NCc1ccc(F)cc1)c1ccc(C(=O)Nc2ccncc2)cc1 (stereo unspecified)
6.30 to 7.30	CC(C)(C(=O)NCC(N)c1ccc(C(=O)Nc2ccncc2)cc1)c1ccc(F)cc1Cl (stereo unspecified)
6.30 to 7.30	CC[C@H](NC(=O)CC(N)c1ccc(C(=O)Nc2ccncc2)cc1)c1ccc(C)cc1 (stereo partly specified)
6.30 to 7.30	NC(CNC(=O)C1(c2ccsc2)CC1)c1ccc(C(=O)Nc2ccncc2)cc1 (stereo unspecified)
5.30 to 6.30	NC(CNC(=O)c1ccc(-c2ccccc2)cc1)c1ccc(C(=O)Nc2ccncc2)cc1 (stereo unspecified)

The remaining lines, values behind:

SMILES	pIC50
CN(CC(N)c1ccc(C(=O)Nc2ccncc2)cc1)C(=O)C1(c2ccc(F)c(F)c2)CC1 (stereo unspecified)	5.30 to 6.30
Cc1ccc(CN2CCC(NC(=O)CC(N)c3ccc(C(=O)Nc4ccncc4)cc3)CC2)s1 (stereo unspecified)	6.30 to 7.30
NC(CC(=O)NCc1cc(C(F)(F)F)cc(C(F)(F)F)c1)c1ccc(C(=O)Nc2ccncc2)cc1 (stereo unspecified)	6.30 to 7.30
CC(C)C(C(=O)N1CCCC1C(N)c1ccc(C(=O)Nc2ccncc2)cc1)c1ccc(Cl)cc1 (stereo unspecified)	5.30 to 6.30
NC(CC(=O)NCCn1cccn1)c1ccc(C(=O)Nc2ccncc2)cc1 (stereo unspecified)	6.30 to 7.30
NC(c1ccc(C(=O)Nc2ccncc2)cc1)C1CCCN1C(=O)C1CCc2cc(F)ccc21 (stereo unspecified)	5.30 to 6.30
CN(CC(N)c1ccc(C(=O)Nc2ccncc2)cc1)C(=O)Cc1ccc(Cl)cc1Cl (stereo unspecified)	5.30 to 6.30
CN(CC(N)c1ccc(C(=O)Nc2ccncc2)cc1)C(=O)Cc1cccc(F)c1 (stereo unspecified)	5.30 to 6.30
NC(CC(=O)NC1c2ccccc2-c2ccccc21)c1ccc(C(=O)Nc2ccncc2)cc1 (stereo unspecified)	6.30 to 7.30
NC(c1ccc(C(=O)Nc2ccncc2)cc1)C1CCCN1C(=O)Cc1ccc(Cl)cc1Cl (stereo unspecified)	5.30 to 6.30
CN(CC(N)c1ccc(C(=O)Nc2ccncc2)cc1)C(=O)C1(c2ccc(Cl)cc2)CCC1 (stereo unspecified)	5.30 to 6.30
NC(c1ccc(C(=O)Nc2ccncc2)cc1)C1CCCN1C(=O)Cc1cccc(F)c1F (stereo unspecified)	5.30 to 6.30
CN(CC(N)c1ccc(C(=O)Nc2ccncc2)cc1)C(=O)Cc1ccc2c(c1)OCO2 (stereo unspecified)	5.30 to 6.30
CN(CC(N)c1ccc(C(=O)Nc2ccncc2)cc1)C(=O)C1Cc2ccccc21 (stereo unspecified)	6.30 to 7.30
CN(CC(N)c1ccc(C(=O)Nc2ccncc2)cc1)C(=O)Cc1ccc(Cl)c(Cl)c1 (stereo unspecified)	5.30 to 6.30
NC(c1ccc(C(=O)Nc2ccncc2)cc1)C1CCCN1C(=O)Cc1cccc(F)c1 (stereo unspecified)	5.30 to 6.30
NC(CNC(=O)CC1CCCC1)c1ccc(C(=O)Nc2ccncc2)cc1 (stereo unspecified)	5.30 to 6.30
CC(NC(=O)CC(N)c1ccc(C(=O)Nc2ccncc2)cc1)c1ccccc1 (stereo unspecified)	6.30 to 7.30
CN(CC(N)c1ccc(C(=O)Nc2ccncc2)cc1)C(=O)Cc1ccc(C(F)(F)F)cc1 (stereo unspecified)	5.30 to 6.30
CN(CC(N)c1ccc(C(=O)Nc2ccncc2)cc1)C(=O)Cc1ccc2ccccc2c1 (stereo unspecified)	6.30 to 7.30
NC(CC(=O)NCCc1ccc(C(F)(F)F)cc1)c1ccc(C(=O)Nc2ccncc2)cc1 (stereo unspecified)	6.30 to 7.30
CS(=O)(=O)NCCNC(=O)CC(N)c1ccc(C(=O)Nc2ccncc2)cc1 (stereo unspecified)	6.30 to 7.30
NC(c1ccc(C(=O)Nc2ccncc2)cc1)C1CCCN1C(=O)Cc1ccc(-c2ccccc2)cc1 (stereo unspecified)	5.30 to 6.30

SMILES	pIC50
CN(CC(N)c1ccc(C(=O)Nc2ccncc2)cc1)C(=O)C1CC(=O)c2ccccc21 (stereo unspecified)	5.30 to 6.30
CC(C)(C(=O)N1CCCC1C(N)c1ccc(C(=O)Nc2ccncc2)cc1)c1ccc(Cl)cc1 (stereo unspecified)	5.30 to 6.30
N[C@H](CC(=O)N[C@H]1COc2ccccc21)c1ccc(C(=O)Nc2ccncc2)cc1	6.30 to 7.30
NC(CC(=O)NCc1ccc([N+](=O)[O-])cc1)c1ccc(C(=O)Nc2ccncc2)cc1 (stereo unspecified)	6.30 to 7.30
NC(CC(=O)NCCc1ccc(Cl)cc1)c1ccc(C(=O)Nc2ccncc2)cc1 (stereo unspecified)	6.30 to 7.30
NC(c1ccc(C(=O)Nc2ccncc2)cc1)C1CCCN1C(=O)C1CCCCc2ccc(F)cc21 (stereo unspecified)	4.30 to 5.30
CCCCNNC(=O)CC(N)c1ccc(C(=O)Nc2ccncc2)cc1 (stereo unspecified)	6.30 to 7.30
CN(CC(N)c1ccc(C(=O)Nc2ccncc2)cc1)C(=O)Cc1ccc(Cl)cc1 (stereo unspecified)	5.30 to 6.30
NC(c1ccc(C(=O)Nc2ccncc2)cc1)C1CCCN1C(=O)C1(c2ccc(F)cc2)CC1 (stereo unspecified)	5.30 to 6.30
CN(CC(N)c1ccc(C(=O)Nc2ccncc2)cc1)C(=O)C(C)(C)c1ccsc1 (stereo unspecified)	5.30 to 6.30
CN(CC(N)c1ccc(C(=O)Nc2ccncc2)cc1)C(=O)C1CCSc2ccccc21 (stereo unspecified)	4.30 to 5.30
NC(CC(=O)NC1CCc2ccccc21)c1ccc(C(=O)Nc2ccncc2)cc1 (stereo unspecified)	6.30 to 7.30
NC(c1ccc(C(=O)Nc2ccncc2)cc1)C1CCCN1C(=O)Cc1c(F)cccc1Cl (stereo unspecified)	5.30 to 6.30
NC(c1ccc(C(=O)Nc2ccncc2)cc1)C1CCCN1C(=O)C1(c2ccc(F)c(Cl)c2)CC1 (stereo unspecified)	5.30 to 6.30
NC(c1ccc(C(=O)Nc2ccncc2)cc1)C1CCCN1C(=O)C1(c2cccc(F)c2)CCCC1 (stereo unspecified)	5.30 to 6.30
NC(c1ccc(C(=O)Nc2ccncc2)cc1)C1CCCN1C(=O)Cc1ccc(Cl)c(Cl)c1 (stereo unspecified)	5.30 to 6.30
COc1cccc(CC(=O)N2CCCC2C(N)c2ccc(C(=O)Nc3ccncc3)cc2)c1 (stereo unspecified)	5.30 to 6.30
NC(c1ccc(C(=O)Nc2ccncc2)cc1)C1CCCN1C(=O)Cc1ccc(Cl)cc1F (stereo unspecified)	5.30 to 6.30
CN(Cc1ccccc1)C(=O)CC(N)c1ccc(C(=O)Nc2ccncc2)cc1 (stereo unspecified)	6.30 to 7.30
CN(CC(N)c1ccc(C(=O)Nc2ccncc2)cc1)C(=O)C1(c2ccc(F)c(F)c2)CCCC1 (stereo unspecified)	5.30 to 6.30
COc1ccc(C2(C(=O)N3CCCC3C(N)c3ccc(C(=O)Nc4ccncc4)cc3)CC2)cc1 (stereo unspecified)	5.30 to 6.30
NC(c1ccc(C(=O)Nc2ccncc2)cc1)C1CCCN1C(=O)C1CCOc2ccc(Cl)cc21 (stereo unspecified)	5.30 to 6.30
NC(CC(=O)NC1Cc2ccccc2C1)c1ccc(C(=O)Nc2ccncc2)cc1 (stereo unspecified)	6.30 to 7.30
